Assay results: BindingDB's records for doi:10.1021/ml2002482 (2012)

Assay: Inhibition of human recombinant ICAM-1 adhesion into human Jurkat cells after 1 hr

CS(=O)(=O)c1cccc(C[C@H](NC(=O)c2c(Cl)cc3c(c2Cl)CCN(C(=O)c2ccc4ccoc4c2)C3)C(=O)O)c1
IC50: 2.98 nM
